System: mice transplanted with MPN BM cells (JAK2-V617F)
Experiment: In vivo pharmacological treatments of mice transplanted with MPN (Mx1-cre;JAK2-V617F) BM cells
Design: species or system mouse
From the text: In Mx1-cre; JAK2-V617F double-transgenic mice, expression of the human JAK2-V617F mutation is driven by the endogenous Jak2 promoter and can be conditionally expressed in haematopoietic cells upon Myxovirus resistance-1 (Mx1)-driven Cre recombinase activation by polyinosine-polycytosine (plpC). PlpC-induced transgenic mice and wild-type mice transplanted with BM cells from these mice develop progressive symptoms of PV19,20.
Age-matched, female wild-type C57BL/6J or Nes-gfp mice were used as recipients in bone marrow (BM) transplantation assays and for in vivo pharmacological treatments. […] Vehicle (saline solution) daily injections were performed in the same way. Unless indicated, treatment was initiated 4 weeks posttransplant, when animals evidenced peripheral blood signs of MPN. Mice were randomly distributed prior to treatment initiation, and disease development was monitored over time in peripheral blood samples, using an automated blood counter. […] The neuroprotective drug 4-methylcatechol (10 μg kg-1, i.p.) was injected once daily. The JAK inhibitor INCB018424 (S-Ruxilitinib, Abmole Bioscience) was administered by oral gavage (30 mg kg-1, twice per day separated 10-12 hours) in 0.5% hydroxypropylmethylcellulose (Sigma) after solubilisation in DMSO. The IL-1 receptor antagonist (Kineret, Sobi, Stockholm, Sweden) was administered by subcutaneous osmotic pumps (Alzet) infusing a continuous dosing of 40 mg kg-1 per day. Mice were sacrificed at different time points and subjected to complete necropsy; BM and spleen were analysed by histology and flow cytometry; femora and skull were used for immunostainings, and haematopoietic and stromal cells were additionally used for functional assays ex vivo.
BM cell extraction, flow cytometry and fluorescence-activated cell sorting For haematopoietic cell recovery, bones were crushed in a mortar, filtered through a 40-μm mesh to obtain single cell suspensions, and depleted of red blood cells by lysis in 0.15 M NH4Cl for 10 min at 4° C. Spleen samples were homogenised and filtered prior to lysis; blood samples were directly lysed. Cells (1-2×10^6 cells per sample) were incubated with the appropriate dilution (2-5 μg ml-1) of fluorescent antibody conjugates and 4′,6-diamidino-2-phenylindole (DAPI) for dead cell exclusion, and analysed on LSRFortessa flow cytometer (BD Biosciences, Franklin Lakes, N.J.) equipped with FACSDiva Software (BD Biosciences). […] Biotinylated antibodies were detected with fluorochrome-conjugated streptavidin (BD Biosciences). Phenotypic populations of HSC were defined as long-term haematopoietic stem cells (HSCs) (lin− Sca1+c-kit+ (LSK) CD34− Flt3−), short-term HSCs (LSK CD34+ Flt3−) and multipotent progenitors (MPP) (LSK CD34+ Flt3+).
Cells were filtered through a 40-μm mesh and erythrocytes were lysed as previously described. The resulting bone marrow-enriched cell suspensions were pelleted, washed and resuspended in PBS buffer containing 2% foetal calf serum (FCS) for further analyses. […] BM stromal CD45− CD31− Ter119− cells were further purified according to GFP fluorescence using a FACS Aria cell sorter (BD Bioscience). For the determination of apoptotic cells, samples were washed with PBS after surface antibody staining and subsequently stained with Annexin V-Pacific Blue and SYTOX AADvanced (Invitrogen, Life Technologies, Paisley, UK). For functional assays, cells were enriched by immunomagnetic depletion using biotinylated CD45 and Ter119. For immunophenotypic characterisation, total BM samples were studied by flow cytometry using the following additional antibodies: CD63 (NVG-2), CD105 (MJ7/18), CD140a (APA5), Vcam, CD51 (RMV-7), all from Biolegend; and CD90.2 from BD Biosciences.
Immunofluorescence staining of cryostat sections was performed. For whole mount staining of the calvaria, all incubation times were extended. The antibodies used were TH (Rabbit pAb, Millipore) and GFAP (Rabbit pAb, Dako).

[1] = advanced MPN, BRL37344 started upon thrombocytosis
[2] = symptomatic MPN mice, chronic BRL37344 2 mg kg-1 i.p. twice a day

C[C@H](Cc1ccc(OCC(=O)O)cc1)NC[C@H](O)c1cccc(Cl)c1 [BRL37344, [4-[(2R)-2-[[(2R)-2-(3-clorophenyl)-2-hydroxyethyl]amino]propyl]phenoxy]acetic acid]
incipient MPN signs (haematological parameters) (8 weeks after transplantation, treatment for the last 4 weeks): improved | IL-1β in BM supernatant (BRL37344, 4 weeks, FIG. 4e): reduced | BM Nes-GFP+ cell number (BRL37344, 8 weeks, FIG. 4f): restored | Cxcl12 levels in BM (BRL37344, 16 weeks, FIG. 4g): increased | mutant haematopoietic progenitors (LSK cells, LT- and ST-HSCs) (BRL37344 administered at thrombocytotic stage, FIG. 4k): efficiently decreased | MPN progression (BRL37344 or Mirabegron 2 mg kg-1 i.p. twice a day): blocks | neuroglial gene expression (Mbp, Mobp, Pleckhb1 mRNA) in BM Nes-GFP+ cells from MPN mice (BRL37344 over 8 weeks, starting 4 weeks after transplantation): do not express | Schwann cell program activation in BM nestin+ cells (BRL37344 over 8 weeks, starting 4 weeks after transplantation, FIG. 11c): blocked | BM Schwann cells (Gfap immunostaining) [1]: rescued | BM interleukin-1β [1]: reduced | erythrocytosis [1]: reduced | fibrosis and osteosclerosis [1]: reduced | neutrophilia [1]: reduced | thrombocytosis [1]: reduced | BM fibrosis: excessive bone and fibroblastic tissue (reticulin, Van Gieson) (chronic BRL37344 versus vehicle-injected mice with severe fibrosis): virtually devoid of excessive bone and fibroblastic tissue | mutant haematopoietic progenitor expansion (early treatment, 4 weeks, BRL37344 2 mg kg-1 twice a day, 4-methylcatechol 10 μg kg-1 once daily): prevented | mutant haematopoietic progenitors (long-term BRL37344 treatment, 16 weeks): efficiently decreased | JAK2-V617F+ HSC expansion (long-term BRL37344 treatment, 16 weeks, 2 mg kg-1 twice a day i.p.): inhibits | MPN-associated thrombocytosis [2]: prevented | red blood cell reduction [2]: delayed | MPN-associated neutrophilia (symptomatic MPN mice, treatment started 4 weeks after transplantation, BRL37344 2 mg kg-1 i.p. twice a day, 4-methylcatechol 10 μg kg-1 i.p. once daily): prevented

From patent publication US10335380B2, “Compounds suitable for the treatment of myeloproliferative neoplasms as well as methods for the diagnosis/prognosis of myeloproliferative neoplasms” (CNIC Fundacion Centro Nacional De investigaciones …, priority 2013, dated 2019)
